Reference: patent US7256024B2, “Tyrissamycin antibiotic” (Bristol-Myers Squibb Company, priority 1998, dated 2007)

Assays:
[1] = test system: Staphylococcus haemolyticus; experiment: MIC, microtiter dilution technique; type: cell-based; conditions: Mueller-Hinton broth, 37° C., 16-24 hours
Protocol: (§1) Tyrissamycin was evaluated in vitro to detemine the minimal inhibitory concentrations (MIC) against seven gram-positive bacteria using the microtiter dilution technique. This method is described by T. B. Conrath, “Handbook of Microtiter Procedures,” Dynatech Corp., Cambridge, Mass., USA (1972); and T. L. Gavan et al “Microdilution Test Procedures,” in Manual of Clinical Microbiology, E. H. Lennette, Ed., American Soc. for Microbiol., Washington, D.C., USA (1980). These tests are performed in accordance with procedures established by the National Committee on Clinical Laboratory Standards (NCCLS). The test procedure is as follows: Each well of a sterile 96-well microdilution tray is filled under aseptic conditions with 0.1 ml of Mueller-Hinton broth. A 0.05-ml sample of the test compound solution is added to a well in the first row of the tray. A microdilutor apparatus is used to simultaneously mix the contents of these wells and to transfer aliquots to each succeeding row of cells to obtain a range of serially diluted solutions. The last row of wells is untreated and serves as a control. Each well containing broth and test compound is inoculated with about ten microliters of inoculum of a given test microorganism. One well in the last row of wells (which is free of test compound) is not inoculated and is used as a sterility control. The trays are sealed and incubated at 37° C. for 16-24 hours.

[2] = test system: Staphylococcus epidermidis; experiment: MIC, microtiter dilution technique; type: cell-based; conditions: Mueller-Hinton broth, 37° C., 16-24 hours
Protocol: as §1

[3] = test system: Streptococcus pyogenes; experiment: MIC, microtiter dilution technique; type: cell-based; conditions: Mueller-Hinton broth, 37° C., 16-24 hours
Protocol: as §1

[4] = test system: Staphylococcus aureus; experiment: MIC, microtiter dilution technique; type: cell-based; conditions: Mueller-Hinton broth, 37° C., 16-24 hours
Protocol: as §1

[5] = test system: Enterococcus faecium; experiment: MIC, microtiter dilution technique; type: cell-based; conditions: Mueller-Hinton broth, 37° C., 16-24 hours
Protocol: as §1

[6] = test system: Streptococcus pneumoniae; experiment: MIC, microtiter dilution technique; type: cell-based; conditions: Mueller-Hinton broth, 37° C., 16-24 hours
Protocol: as §1

[7] = test system: Enterococcus faecalis; experiment: MIC, microtiter dilution technique; type: cell-based; conditions: Mueller-Hinton broth, 37° C., 16-24 hours
Protocol: as §1

[8] = Solubility; type: physicochemical
Excerpt: A purified sample of tyrissamycin was isolated as a white amorphous powder. […] FIG. 3 (CD3OD) • ^13C-NMR: See FIG. 4 (CD3OD)

[9] = test system: Staphylococcus aureus strain SA1; experiment: Well-agar diffusion biological assay; type: cell-based; conditions: sample 5 mg/ml; S. aureus SA1; 7 mm agar wells; fractions of final purification
Protocol: Assays for detection and evaluation of the antibacterial activity of tyrissamycin employ various strains of Staphylococcus aureus. The primary biological assay system consists of S. aureus strain SA1.
SA1 is grown at 37° C. overnight in Antibiotic Assay Broth (BBL, Cockeysville, Md.). The culture is centrifuged at 4000 rpm for 10 minutes and the medium is decanted. Cells are resuspended in 0.9% saline. The culture is adjusted to 25% transmission (600 nm wavelength) using a Coleman Junior Spectrophotometer. This 25% working cell suspension is stored at 4° C. for use as the assay inoculum.
All biological assays employ agar diffusion techniques. Assay agar is Seed Agar (BBL) supplemented after autoclaving with 4% of phosphate-nitrate buffer, pH 7.0, and 0.3% of a 2% solution of triphenyltetrazolium chloride. For well-agar diffusion assays, assay agar is seeded with 1% of the working cell suspension of SA1. The seeded agar is poured into Petri dishes or bioassay trays and allowed to harden. Wells (7 mm diameter) are cut in the agar, and 40 μl sample aliquots are added to the wells. (For some assays, 3 μl of sample are spotted directly on the surface of the agar). Plates are incubated at 37° C. for 18-24 hours, and zones of inhibition (if any) are measured. Inhibition zone sizes correlated with the activity of tyrissamycin in various samples.

In the case of tyrissamycin, the “Minimal Inhibitory Concentration” value [1] is reported as 32 µg/mL, the “Minimal Inhibitory Concentration” value [2] is reported as 32 µg/mL and the “Minimal Inhibitory Concentration” value [3] is reported as 4 µg/mL. For the same substance, the “Minimal Inhibitory Concentration” value [4] was 32 µg/mL, the “Minimal Inhibitory Concentration” value [5] was 64 µg/mL and the “Minimal Inhibitory Concentration” value [6] was 4 µg/mL. The “Minimal Inhibitory Concentration” value [7] was 32 µg/mL, the Solubility ([8]; in chloroform) was “Soluble” and the Solubility ([8]; in dimethylsulfoxide (DMSO)) was “Soluble”. For the same substance, the Solubility ([8]; in methanol) was “Soluble”, the Solubility ([8]; in water) was “practically insoluble” and the “Inhibition Zone” value [9] was 14.0 mm.
